The source of these data is ChEMBL document CHEMBL1127252, “Anti-solid tumor efficacy and preparation of N-[[1-[[2-(diethylamino)ethyl]amino]-9-oxo-9H-thioxanthen-4-yl]methyl]methanesulfonamide (win 33377) and related derivatives” (1994).

A word on the MTD: it is the highest dose tested that stayed within the study's limit of toxicity. As usually defined, the T/C is the ratio of treated to control.

Holding throughout (format): functional
For test [1], the system named is Mus musculus. The test is described as follows: The maximum tolerated total dose following i.v. administration in mice.
The species named for test [2] is Mus musculus. The test is described as follows: Percent tumor growth inhibition in mice.
For test [3], the species on record is Mus musculus. The test is described as follows: Survival (Long Term Cure) of tumor inoculated mice after 100 days.
The species named for test [4] is Mus musculus. The test is described as follows: Log cell kill of tumor (indicating the tumor growth delay) in mice.
Test [5] has as its system Mus musculus. Kind of test: Maximum tolerated total dose (MTD) was determined after intravenous administration in mice.

As for `COc1cccc2c1C(=O)c1c(O)c3c(c(O)c1C2=O)C[C@@](O)(C(=O)CO)C[C@@H]3O[C@H]1C[C@H](N)[C@H](O)[C@H](C)O1` [DOXORUBICIN], the maximum tolerated dose (MTD) in test [1] is 18 mg/kg. Moreover, in test [2], the T/C is 0%. In test [3], this compound returned an LTC of 1. The LCK in test [4] stood at 2.9.
The compound `CCN(CC)CCNc1ccc(CNC(C)=O)c2sc3ccccc3c(=O)c12` showed a maximum tolerated dose (MTD) in test [1] of 540 mg/kg. This compound yielded a T/C in test [2] of 0%. This compound also came in with an LTC in test [3] of 3. The compound also showed an LCK in test [4] of 2.7.
`CCN(CC)CCNc1ccc(CNC)c2sc3ccccc3c(=O)c12` showed a maximum tolerated dose (MTD) in test [1] of 800 mg/kg. Besides, in test [2], the T/C came out at 0%. Further, the LTC in test [3] is 1. In test [4], this compound came in with an LCK of 3.1.
The like results for `CCN(CC)CCNc1ccc(CNC)c2sc3ccc(OC)cc3c(=O)c12` were, in that order, 880 mg/kg, 0%, 1 and 5.1.
The matching figures for `CCN(CC)CCNc1ccc(CNS(=O)(=O)c2ccccc2)c2sc3ccccc3c(=O)c12`: 840 mg/kg, 0%, 1 and 2.9.
The like results for `CCOP(=O)(NCc1ccc(NCCN(CC)CC)c2c(=O)c3ccccc3sc12)OCC` were, in that order, 1298 mg/kg, 36%, 0 and less than 0.5.
In test [1], `CCN(CC)CCNc1ccc(CNS(C)(=O)=O)c2sc3ccc(O)cc3c(=O)c12` yielded an MTD of 47 mg/kg. Moreover, in test [2], the T/C worked out at 11%. Further, in test [3], the LTC stood at 0. Besides, in test [4], the LCK worked out at 3.7.
Take `CCN(CC)CCNc1ccc(CNC=O)c2sc3ccccc3c(=O)c12`: the maximum tolerated dose (MTD) in test [1] was 576 mg/kg. In test [2], the T/C was 0%. The LTC in test [3] came out at 1. Besides, in test [4], the LCK was 3.
The like results for `CCN(CC)CCNc1ccc(CNC)c2sc3ccc(O)cc3c(=O)c12` were, in that order, 60 mg/kg, 0%, 0 and 4.6.
For `CCN(CC)CCNc1ccc(CN(C)C)c2sc3ccccc3c(=O)c12`, the maximum tolerated dose (MTD) in test [1] is 544 mg/kg. This compound displayed a T/C in test [2] of 23%. Also, the LTC in test [3] was found to be 0. In test [4], this compound displayed an LCK of 0.9.
`CCN(CC)CCNc1ccc(CNC(=O)c2ccccc2)c2sc3ccccc3c(=O)c12` came in with an MTD in test [1] of 252 mg/kg. In test [2], the T/C is recorded as 26%. The same compound came in with an LTC in test [3] of 1. Also, the LCK in test [4] is listed as 0.5.
The like results for `CCN(CC)CCNc1ccc(CN)c2sc3ccccc3c(=O)c12` were, in that order, 270 mg/kg, 0%, 4 and more than 4.
As for `CCN(CC)CCNc1ccc(CNS(C)(=O)=O)c2sc3ccccc3c(=O)c12`, the MTD in test [5] worked out at 124 mg/kg. In test [2], the T/C amounted to 0%. Also, the LTC in test [3] is reported as 3. Moreover, in test [4], the LCK turned out to be 2.
With `CCN(CC)CCNc1ccc(CNS(C)(=O)=O)c2sc3ccc(OC)cc3c(=O)c12`, the MTD in test [1] amounted to 248 mg/kg. This compound also gave a T/C in test [2] of 0%. This compound also returned an LTC in test [3] of 1. The LCK in test [4] is reported as 6.5.
The like results for `CCN(CC)CCNc1ccc(CN(C)S(C)(=O)=O)c2sc3ccccc3c(=O)c12` were, in that order, 304 mg/kg, 0%, 1 and 2.5.
For `CCN(CC)CCNc1ccc(CNC(=O)OC)c2sc3ccccc3c(=O)c12`, in test [1], the maximum tolerated dose (MTD) amounted to 248 mg/kg. For the same compound, in test [2], the T/C turned out to be 0%. The same compound gave an LTC in test [3] of 2. In test [4], this compound displayed an LCK of 8.8.
The like results for `CCN(CC)CCNc1ccc(CNC(=O)C(F)(F)F)c2sc3ccccc3c(=O)c12` were, in that order, 1171 mg/kg, 21%, 0 and 1.5.
The like results for `CCN(CC)CCNc1ccc(CO)c2sc3ccccc3c(=O)c12` [HYCANTHONE] were, in that order, 290 mg/kg, 4%, 0 and 3.4.
`CCN(CC)CCNc1ccc(CNC(=O)OC)c2sc3ccc(OC)cc3c(=O)c12` showed an MTD in test [1] of 240 mg/kg. In addition, the T/C in test [2] is given as 0%. The LTC in test [3] is 5. For the same compound, the LCK in test [4] is reported as more than 4.5.
